From US11754486B2, “Systems and methods for measuring properties of particles” (Massachusetts Institute of Technology, priority 2017, dated 2023)

Experiments:
L1210 cells [1] = test: Continuous single-cell monitoring of SNACS (stiffness) of L1210 cells through mitosis in the SMR; assay type: cell-based, mouse
Description: Next, it was determined if both stiffness and buoyant mass of the same cell could be repeatedly measured in order to monitor cell stiffness during the cell cycle. To do so, a previously reported fluidic control strategy was implemented that enables continuous, non-invasive SMR measurements of the same cell. Employing on-chip microscopy capable of acquiring Differential Interference Contrast (DIC) images, stiffness, buoyant mass and morphology of the same cell over multiple generations was simultaneously measured. […] SNACS is shown in dashed lines when measurement error becomes statistically significant. The morphology of the cell was imaged to pinpoint the onset of anaphase as well as to correct for mass elongation effects on the SNACS measurement during anaphase and telophase (FIG. 24A-24C). Dynamic but consistent changes in cell stiffness during mitosis were observed. […] The error in the SNACS measurement increased after cells became full doublets (˜15 min after the onset of anaphase), making subsequent stiffness changes until division not statistically significant (p>0.05). Although the duration and magnitude of the dynamics varied, we observed a similar trend in cell stiffness in other mammalian cell types: BaF3 (FIG. 15D) and S-Hela (FIG. 15E).
(§1) The system was operated by placing a chip on top of a hollow copper plate that is connected to a water bath by tubing to maintain constant temperature on the chip. For all single-cell, long-term monitoring experiments, the temperature of the copper plate was kept at 37° C. The sample was loaded to the SMR from vials pressurized with air containing 5% CO2 to maintain the pH of the culture. A 0.007″ inner diameter fluorinated ethylene propylene (FEP) tubing (IDEX Health & Science) was utilized to push the sample into the chip. The fluid flow was controlled using two electronic pressure regulators (Proportion Air QPV1) and three solenoid valves (SMC-S070), which were controlled by National Instruments control cards and a custom measurement software (Labview 2012). Typically, differential pressure of ˜0.5 psi was applied across the SMR, yielding a flow rate of ˜2 nL/s (calculated based on the frequency modulation signal due a cell transit; typically 200-300 ms) to maintain constant shear and data rate. Under these conditions, the L1210 cell growth rate was similar to that in culture. Beads, hydrogels and drug-response end-point assays were measured at room temperature. All end-point assays were conducted within 30 minutes after samples were loaded. New samples were flushed every several minutes into the input bypass to minimize potential size bias due to particle/cell settling in the tubing and sample vials.
(§2) To measure buoyant mass (antinode) and node deviation (node) from the acquired resonant frequency waveforms, the frequency data was filtered with a third order Savitzky-Golay low-pass filter and the local minima (antinode) that is below a user-defined threshold. Next, local maxima (node) around the peaks were determined. To correct for the possible slope during the particle/cell transition through the cantilever, a baseline was calculated and subtracted from the measured peaks by fitting a first order polynomial at frequency data points prior and posterior of the cell signal. For single-cell volume measurements (FIG. 16A), baselines were fitted with a second order polynomial to account for the baseline fluctuation due to fluid exchange. […]

L1210 cells [2] = test: SNACS / node deviation end-point assay of chemically perturbed L1210 cells in the suspended microchannel resonator (SMR); assay type: cell-based, mouse; conditions: for SNACS (size-normalized acoustic scattering, proxy of cell stiffness) after treatment: L1210 cells pretreated 20-30 min, LatB 0.02-1 μM, CytoD 1 μM, Bleb 50 μM, Noc 1 μg/ml, vs DMSO 0.1% control, LatB and CytoD p<0.0001
Description: SMR devices were fabricated at CEA-LETI, Grenoble, France. The fluid channel in the detection regime is covered with thin silicon layers. The SMRs were vibrated with a piezo-ceramic plate bonded underneath the chip, providing actuation to resonate the cantilever beam in the second mode. To track the changes in the resonant frequency of the cantilever as a function of time, the cantilever was kept in a feedback loop oscillating at its resonant frequency. The motion of the cantilever was measured using piezoresistors that are implanted at the base of the silicon cantilever. A digital control platform was utilized to oscillate the SMR in direct feedback mode, where the motion signal acquired from the piezoresistor is delayed, amplified, and utilized as the drive signal used to actuate the cantilever. The measurement bandwidth of this control system was set at ˜1,500 Hz, which is wide enough to capture frequency modulation signals created by cell transit events and narrow enough to minimize noise.
as §1
as §2, with “exchange. Both local maxima and minima in the cell signal were subtracted from the linear baseline to obtain the buoyant mass (local minima, antinode) and node deviation (local maxima, node). For single-cell end-point assays (population measurements), frequency peaks were rejected when local minima (two antinodes) differed from each other more than 10% of the average value and/or local maxima (two nodes) differed from each other more than 15% of the average value of local minima, which occur when multiple cells or cell with debris enter the SMR simultaneously. Peaks were rejected if their shape was atypical (e.g., particle/cell stuck in the cantilever).” for “exchange.”

L1210 cells [3] = test: Imaging of F-actin (LifeAct-RFP) in live L1210 cells before and after chemical treatment; assay type: cell-based, mouse; conditions: live L1210 cells expressing LifeAct-RFP, before and after 30 min treatment; 1 μM LatB, 1 μM CytoD, Noc 1 μg/ml
Description: L1210 FUCCI cells, which express the fluorescence cell cycle marker construct mAG-hGem, were transfected with LifeAct, a F-actin labelling red fluorescent protein construct, using rLVUbi-LifeAct-TagRFP lentiviral vector obtained from ibidi GmbH. Several rounds of transfections were carried out using spinoculation. In short, 1.5×10^5 L1210 FUCCI cells were mixed with 10 μg/ml Polybrene (EMD Millipore) and 1×106 TU of lentivirus, and the mixture was centrifuged at 800 g for 60 minutes at 25° C. After centrifugation, the cells were moved to normal cell culture media, grown overnight, and the spinoculation procedure was repeated. Cells were moved to normal culture media after three rounds of transfections, and 24 hours later, selection was started by adding 10 μg/ml Puromycin (Sigma-Aldrich). After a week of selection, the transfected population was enriched for cells expressing high levels of LifeAct by FACS sorting using BD FACS Aria.
L1210 cells expressing the FUCCI (mAG-hGem) and LifeAct-RFP F-actin probe (rLVUbi-LifeAct-TagRFP) constructs were imaged on poly-lysine coated glass bottom CellView cell culture dishes (Greiner Bio-One). Media, CO2, and temperature conditions during the imaging were the same as within the SMR. Imaging was carried out using a DeltaVision widefield deconvolution microscope with standard FITC and TRICT filters, 100× oil immersion objective and immersion oil with refractive index of 1.522. […]
All images were deconvolved using standard settings in the softWoRX software. To normalize the effect of photo-bleaching, the total LifeAct signal in the entire images (2048×2048 pixels) that contained multiple cells was calculated. […] During the subsequent image analyses, the LifeAct intensity was corrected with the corresponding decay coefficient calculated from the polynomial fit for each frame. To analyze individual cells, the representative cells that went through the nuclear envelope breakdown and/or cytokinesis during the experiment were determined. These cells were cut out of the larger images and analyzed individually (FIG. 28A).

Baf3 cells = test: Node deviation versus time of Baf3 cells treated with drug (single-cell therapeutic sensitivity); assay type: cell-based; conditions: a few hours of treatment
Description: Acoustic scattering may be used as an early detection marker of single-cell therapeutic sensitivity (FIGS. 11A-11B). […] Viability and proliferation assays are generally not sensitive until 24 hours of drug exposure (data not shown).

Compound: CCN(c1nc(N)c(C(=O)NC(=N)N)nc1Cl)C(C)C [EIPA, ethylisopropylamiloride]
- stiffness increase in early anaphase (L1210 cells [1]; 10 μM EIPA): not present
- ΔSNACS, SNACS change in prophase and metaphase (early mitosis) (L1210 cells [1]; 10 μM EIPA (n=5), 5 μM STLC (n=8), mean±standard deviation, control −0.22±0.01): −0.08±0.02

Compound: C=C1[C@@H](C)[C@H]2[C@H](Cc3ccccc3)NC(=O)[C@]23[C@H](OC(C)=O)/C=C/[C@@](C)(O)C(=O)[C@@H](C)C/C=C/[C@H]3[C@@H]1O [Cytochalsin D]
- SNACS (size-normalized acoustic scattering, proxy of cell stiffness) after treatment (L1210 cells [2]): decreased the SNACS
- actin cortex morphology (LifeAct F-actin images) (L1210 cells [3]): polarized cortex

Compound: Cc1ccc(NC(=O)c2ccc(CN3CCN(C)CC3)cc2)cc1Nc1nccc(-c2cccnc2)n1 [Imatinib]
- node deviation (ND) of treated cells versus DMSO (Baf3 cells): distinct ND

Compound: paraformaldehyde
- SNACS after crosslinking of cellular structures (L1210 cells [2]): opposite change in SNACS
- node deviation after treatment (L1210 cells [2]): increased the node deviation

Compound: COC(=O)Nc1nc2ccc(C(=O)c3cccs3)cc2[nH]1 [Nocodazole]
- SNACS (size-normalized acoustic scattering, proxy of cell stiffness) after treatment (L1210 cells [2]): reduced SNACS
- actin cortex morphology (LifeAct F-actin images) (L1210 cells [3]): affected the actin cortex morphology

Compound: C/C1=C/C(=O)O[C@@H]2C[C@@H](CC[C@H](C)/C=C\CC1)O[C@@](O)([C@@H]1CSC(=O)N1)C2 [Latrunculin B]
- SNACS (size-normalized acoustic scattering, proxy of cell stiffness) after treatment (L1210 cells [2]): decreased the SNACS
- actin cortex morphology (LifeAct F-actin images) (L1210 cells [3]): punctured cortex

Compound: Cc1ccc2c(c1)C(=O)C1(O)CCN(c3ccccc3)C1=N2 (stereo not drawn) [Blebbistatin]
- SNACS (size-normalized acoustic scattering, proxy of cell stiffness) after treatment (L1210 cells [2]): decreased the SNACS
- stiffness in early mitosis (L1210 cells [1]; 25 μM Blebbistatin): still displayed a gradual stiffness decrease in early mitosis
- stiffness dynamics in anaphase and telophase (L1210 cells [1]; 25 μM Blebbistatin, compared with untreated cells): disappeared

Compound: N[C@@H](CSC(c1ccccc1)(c1ccccc1)c1ccccc1)C(=O)O [STLC, S-trityl-1-cysteine]
- stiffness (SNACS) during metaphase arrest (L1210 cells [1]; 5 μM STLC): stiffness remained low for several hours
